Data published in article PMC10687260, “1,3-Diphenylureido hydroxamate as a promising scaffold for generation of potent antimalarial histone deacetylase inhibitors” (Scientific Reports, 2023).

Tests used:
[1] = molecular target: T1, human HDAC6 (Homo sapiens, UniProt Q9UBN7); test: In vitro HDAC enzymatic assay, HDAC6; type: biochemical; conditions: for IC50: mean ± SD; for HDAC1/6 SI: ratio HsHDAC1 IC50/HsHDAC6 IC50
T1 construct: purchased ENZO Life Sciences AG (Lausen, CH)
T1 sequence (Q9UBN7 1-1215): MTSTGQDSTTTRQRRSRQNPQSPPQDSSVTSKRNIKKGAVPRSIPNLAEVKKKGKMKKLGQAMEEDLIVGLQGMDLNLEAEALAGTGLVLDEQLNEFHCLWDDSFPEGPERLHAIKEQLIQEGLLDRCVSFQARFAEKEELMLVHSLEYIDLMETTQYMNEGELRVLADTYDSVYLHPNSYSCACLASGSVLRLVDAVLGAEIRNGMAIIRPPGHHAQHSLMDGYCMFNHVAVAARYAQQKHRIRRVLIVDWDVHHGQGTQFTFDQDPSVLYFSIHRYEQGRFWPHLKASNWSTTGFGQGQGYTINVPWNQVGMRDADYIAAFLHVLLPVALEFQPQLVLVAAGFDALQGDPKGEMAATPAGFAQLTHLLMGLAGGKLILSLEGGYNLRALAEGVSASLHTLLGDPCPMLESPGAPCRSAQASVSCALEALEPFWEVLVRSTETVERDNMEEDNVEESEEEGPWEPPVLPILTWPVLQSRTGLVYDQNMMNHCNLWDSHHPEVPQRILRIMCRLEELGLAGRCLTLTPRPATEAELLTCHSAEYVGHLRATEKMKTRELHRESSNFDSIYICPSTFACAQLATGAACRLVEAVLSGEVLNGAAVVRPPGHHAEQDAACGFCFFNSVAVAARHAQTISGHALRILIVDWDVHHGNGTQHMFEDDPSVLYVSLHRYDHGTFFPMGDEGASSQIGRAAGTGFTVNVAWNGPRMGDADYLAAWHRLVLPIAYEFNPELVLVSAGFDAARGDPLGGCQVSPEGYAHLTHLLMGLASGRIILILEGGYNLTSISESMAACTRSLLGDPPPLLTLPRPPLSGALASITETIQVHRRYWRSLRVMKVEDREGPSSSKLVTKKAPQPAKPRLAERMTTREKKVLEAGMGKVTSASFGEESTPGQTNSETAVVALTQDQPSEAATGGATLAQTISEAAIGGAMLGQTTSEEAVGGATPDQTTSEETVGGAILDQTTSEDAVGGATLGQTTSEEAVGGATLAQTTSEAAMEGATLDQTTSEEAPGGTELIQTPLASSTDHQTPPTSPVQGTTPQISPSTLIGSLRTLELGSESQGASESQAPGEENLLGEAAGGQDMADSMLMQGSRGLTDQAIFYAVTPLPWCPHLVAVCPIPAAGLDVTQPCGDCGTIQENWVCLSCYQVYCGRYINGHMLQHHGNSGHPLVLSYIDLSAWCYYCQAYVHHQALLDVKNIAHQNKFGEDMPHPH
Protocol: In vitro HDAC enzymatic assays. Recombinant human HDAC1 and HDAC6 were purchased from ENZO Life Sciences AG (Lausen, CH) whereas HDAC8 was produced as described before. In vitro testing of the inhibitors in an enzymatic assay was carried out as described in previous publications[32],[33]. For HDAC1 a fluorogenic peptide derived from p53 (Ac-RHKK(Acetyl)-AMC) was used. For HDAC6, the substrate (Abz-SRGGK(thio-TFA)FFRR-NH2) was used as described before.

[2] = molecular target: T2, PfHDAC1 (Plasmodium falciparum, UniProt Q7K6A1); test: In vitro PfHDAC1 enzymatic assay; type: biochemical; conditions: for inhibition at 1 µM / inhibition at 10 µM: recombinant PfHDAC1
T2 construct: purchased BPS Bioscience (San Diego, CA)
T2 sequence (Q7K6A1 1-449): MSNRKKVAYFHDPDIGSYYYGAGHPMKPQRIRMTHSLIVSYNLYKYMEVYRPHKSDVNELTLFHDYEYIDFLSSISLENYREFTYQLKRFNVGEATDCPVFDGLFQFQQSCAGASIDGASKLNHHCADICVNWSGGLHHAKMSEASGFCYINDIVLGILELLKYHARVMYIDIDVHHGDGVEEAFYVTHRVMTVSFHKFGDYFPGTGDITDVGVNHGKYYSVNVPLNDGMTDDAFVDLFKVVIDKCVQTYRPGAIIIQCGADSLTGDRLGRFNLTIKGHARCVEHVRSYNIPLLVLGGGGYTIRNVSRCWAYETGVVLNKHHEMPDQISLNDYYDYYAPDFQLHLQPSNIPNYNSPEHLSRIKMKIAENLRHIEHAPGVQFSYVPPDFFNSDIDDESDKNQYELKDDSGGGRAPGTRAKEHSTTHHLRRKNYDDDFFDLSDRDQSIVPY
Protocol: In vitro PfHDAC1 enzymatic assay. PfHDAC inhibition assays were performed by BPS Bioscience (San Diego, CA). […] Then, each DMSO solution was directly diluted 10 × fold into the HDAC assay buffer for an intermediate dilution of 10% DMSO in HDAC assay buffer. Then, 5 µL of the intermediate dilution was added to a 50 µL reaction so that the final concentration of DMSO is 1% in all the reactions. […] Fluorescence intensity was measured at an excitation of 360 nm and an emission of 460 nm using a Tecan Infinite M1000 microplate reader. […] The fluorescent intensity data were analyzed using GraphPad Prism (v9.5.2). In the absence of the compound, the fluorescent intensity (Ft) in each data set was defined as 100% activity. In the absence of HDAC, the fluorescent intensity (Fb) in each data set was defined as 0% activity. The percent activity in the presence of each compound was calculated according to the following equation: % activity = (F-Fb)/(Ft-Fb), where “F” is the fluorescent intensity in the presence of the compound.

Structure (SMILES)	IC50 [1]	HDAC1/6 SI [1]	melting point	inhibition at 1 µM [2]	remaining activity at 1 µM ([2]; 1 µM, read-out: PfHDAC1 residual activity)	inhibition at 10 µM [2]
O=C(Nc1ccccc1)Nc1ccc(C(=O)NO)cc1 [Compound 8a, N-hydroxy-4-(3-phenylureido)bezamide]	8.5 ± 0.8 nM	627	304 °C (dec.)	–	–	–
COc1ccc(NC(=O)Nc2ccc(/C=C/C(=O)NO)cc2)cc1 [Compound 6c, (E)-N-hydroxi-3-(4-(3-(4-methoxyphenyl)ureido)phenyl)acrylamide]	7.7 ± 0.9 nM	206	210 °C (dec.)	69%	26%	82%
O=C(Nc1ccc(C(=O)NO)cc1)Nc1ccc([N+](=O)[O-])cc1 [Compound 8d, N-hydroxy-4-(3-(4-nitrophenyl)ureido)benzamide]	13.4 ± 0.5 nM	279	312 °C (dec.)	–	–	–
O=C(Nc1ccc(Cl)cc1)Nc1ccc(C(=O)NO)cc1 [Compound 8b, 4-(3-(4-chlorophenyl)ureido)-N-hydroxybenzamide]	15 ± 0.4 nM	349	357 °C (dec.)	–	–	–
COc1ccc(NC(=O)Nc2ccc(C(=O)NO)cc2)cc1 [Compound 8c, N-hydroxy-4-(3–4(-methoxyphenyl)ureido)benzamide]	15.9 ± 0.4 nM	–	–	~50%	–	–
COc1ccc(NC(=O)Nc2ccc(CCC(=O)NO)cc2)cc1 [Compound 7c, N-hydroxy-3-(4-(3-(4-methoxyphenyl)ureido)phenyl)propanamide]	151 ± 11.1 nM	23	202 to 204 °C	~50%	–	88%
